One data set concerns the target T1, p38α (Homo sapiens, UniProt Q16539).
T1 construct: p38 MAP Kinases are recombinant human full-length proteins with an amino-terminal GST fusion; GST (N); purchased Upstate Biotechnology Inc; host or cells: E. coli
Briefly: p38 MAP Kinase assay: inhibition of ATF2 phosphorylation, ELISA. It is filed as biochemical. The note with it: ATF2 phosphorylation; read-out: [ENZ] P38 ALPHA, IC50, ELISA. The procedure, abridged: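 In vitro phosphorylation of ATF2 at Thr69 by recombinant human GST-p38 MAP kinase, read by anti-phospho-ATF2 ELISA at 450 nm. Enzyme and compound pre-incubated 15 min at RT, then 30 min reaction at 37 °C with 40 μM ATP and 1.25 μM ATF2; buffer with or without 1% HSA (Method II or I).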

The test system of data set [1] is TNFα release from THP-1 cells. Kind of data set: Inhibition of TNFα release from LPS-stimulated THP-1 cells, ELISA. It is filed as cell-based. The note with it: Homo sapiens, THP-1, THP-1 cells, read-out: [CELL] THP-1, IC50, TNF ALPHA, ELISA. The procedure, abridged: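 TNFα released into supernatant after 18 h of 10 μg/ml LPS stimulation was quantified by ELISA and IC50 taken as 50% reduction by non-linear regression. THP-1 cells (10^6/ml; medium with 10% FBS, serum-free or 1% HSA) saw compound for 30 min at 37 °C beforehand; final DMSO ≤0.5%.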

T1 sequence (Q16539 whole entry, the tested form may be a part): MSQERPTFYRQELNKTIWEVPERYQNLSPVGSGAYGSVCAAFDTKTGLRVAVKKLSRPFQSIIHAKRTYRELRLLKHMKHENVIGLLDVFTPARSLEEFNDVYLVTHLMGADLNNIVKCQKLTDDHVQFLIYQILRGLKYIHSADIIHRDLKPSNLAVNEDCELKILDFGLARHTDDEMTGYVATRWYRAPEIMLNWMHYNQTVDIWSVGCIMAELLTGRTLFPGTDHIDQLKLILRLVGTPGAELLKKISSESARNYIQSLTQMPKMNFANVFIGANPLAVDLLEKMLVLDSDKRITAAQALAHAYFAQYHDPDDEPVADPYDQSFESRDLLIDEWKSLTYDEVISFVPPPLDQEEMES

One may read the IC50 as the concentration that gives 50% inhibition. Usually melting point stands for the temperature of the solid-liquid transition. In turn, `CC(C)(C)OC(=O)NC1CCN(c2nccc(Oc3ccc(NC(=O)c4cc(F)cc(N5CCOCC5)c4)c4ccccc34)n2)CC1` [Compound B366, t-Butyl-{1-[4-({4-[(3-fluoro-5-morpholin-4-ylbenzoyl)amino]-1-naphthyl}oxy)pyrimidin-2-yl]piperidin-4-yl}-carbamate] returned a melting point of 214 to 216 °C. Further, the IC50 on p38α turned out to be 28.3 nM. In data set [1], the IC50 amounted to 386 nM.

`COC(CN(C)c1nccc(Oc2ccc(NC(=O)c3cc(F)cc(N4CCCCC4)c3)c3ccccc23)n1)OC` [Compound B403, N-[4-({2-[(2,2-Dimethoxyethyl)(methyl)amino]pyrimidin-4-yl}oxy)-1-naphthyl]-3-fluoro-5-piperidin-1-ylbenzamide] gave a melting point of 135 to 136 °C. In addition, the IC50 at p38α was 48.3 nM. In addition, the IC50 in data set [1] was determined as 254 nM.

Turning to `O=C(Nc1ccc(Oc2ccnc(N3CCOCC3)n2)c2ccccc12)c1cc(F)cc(N2CCOCC2)c1` [Compound B248, 3-Fluoro-5-morpholin-4-yl-N-{4-[(2-morpholin-4-ylpyrimidin-4-yl)oxy]-1-naphthyl}benzamide], the melting point fell in the range of 104 to 106 °C. In addition, the IC50 at p38α came out at 46.6 nM. Also, in data set [1], the IC50 is 157 nM.

`CC1CCN(c2nccc(Oc3ccc(NC(=O)c4cc(F)cc(N5CCCCC5)c4)c4ccccc34)n2)CC1` [Compound B381, 3-Fluoro-N-(4-{[2-(4-methylpiperidin-1-yl)pyrimidin-4-yl]oxy}-1-naphthyl)-5-piperidin-1-ylbenzamide] showed a melting point of 145 to 146 °C. Further, the IC50 at p38α is 87.8 nM. For the same compound, the IC50 in data set [1] came to 590 nM.

Compound `O=C(Nc1ccc(Oc2ccnc(NC3CCS(=O)(=O)C3)n2)c2ccccc12)c1cc(F)cc(N2CCOCC2)c1` (stereo not drawn) [Compound B347, N-[4-({2-[(1,1-Dioxidotetrahydro-3-thienyl)amino]pyrimidin-4-yl}oxy)-1-naphthyl]-3-fluoro-5-morpholin-4-ylbenzamide] showed a melting point of 150 to 151 °C. Also, the IC50 at p38α stood at 13.9 nM. Moreover, in data set [1], the IC50 is 42.2 nM.

In turn, `COc1ccc(CCOc2ccc(NC(=O)c3cc(F)cc(N4CCCCC4)c3)c3ccccc23)cc1OC` [Compound B179, N-{4-[2-(3,4-Dimethoxyphenyl)ethoxy]-1-naphthyl}-3-fluoro-5-piperidin-1-ylbenzamide] displayed a melting point of 158 to 160 °C. For the same compound, on p38α, the IC50 came to 1060 nM. For the same compound, in data set [1], the IC50 is 2050 nM.

Compound `O=C(Nc1ccc(Oc2ccnc(N3CCC3)n2)c2ccccc12)c1cc(F)cc(N2CCOCC2)c1` [Compound B363, N-{4-[(2-azetidin-1-ylpyrimidin-4-yl)oxy]-1-naphthyl}-3-fluoro-5-morpholin-4-ylbenzamide] returned a melting point of 196 to 197 °C. For the same compound, at p38α, the IC50 was 5.8 nM. Moreover, in data set [1], the IC50 was found to be 78 nM.

Compound `O=C(Nc1ccc(OCCN2CCOCC2)c2ccccc12)c1ccc2snnc2c1` [Compound B50, N-[4-(2-Morpholin-4-ylethoxy)-1-naphthyl]-1,2,3-benzothiadiazole-5-carboxamide] gave a melting point of 188 to 190 °C. The IC50 at p38α amounted to 1240 nM. Besides, in data set [1], the IC50 is 9180 nM.

Take `O=C(Nc1ccc(Oc2ccnc(NCC3OCCO3)n2)c2ccccc12)c1cc(F)cc(N2CCCCC2)c1` [Compound B411, N-[4-({2-[(1,3-Dioxolan-2-ylmethyl)amino]pyrimidin-4-yl}oxy)-1-naphthyl]-3-fluoro-5-piperidin-1-ylbenzamide]: the melting point is 96 to 98 °C. The IC50 at p38α was 1.7 nM. The IC50 in data set [1] is 23.5 nM.

Regarding `COc1cccc(C(=O)Nc2ccc(OCCN3CCOCC3)c3ccccc23)c1` [Compound B60, 3-Methoxy-N-[4-(2-morpholin-4-ylethoxy)-1-naphthyl]benzamide], the melting point lay within 105 to 107 °C. At p38α, the IC50 worked out at 7810 nM. Besides, in data set [1], the IC50 is greater than 10000 nM.

In turn, `O=C(Nc1ccc(Oc2ccnc(-n3ccnc3)n2)c2ccccc12)c1cc(F)cc(N2CCOCC2)c1` [Compound B325, 3-Fluoro-N-(4-{[2-(1H-imidazol-1-yl)pyrimidin-4-yl]oxy}-1-naphthyl)-5-morpholin-4-ylbenzamide] had a melting point of 153 to 154 °C. For the same compound, at p38α, the IC50 is 34.4 nM. Besides, in data set [1], the IC50 is 247 nM.

In the case of `CC(C)N(C)c1nccc(Oc2ccc(NC(=O)c3cc(F)cc(N4CCCCC4)c3)c3ccccc23)n1` [Compound B385, 3-Fluoro-N-[4-({2-[isopropyl(methyl)amino]pyrimidin-4-yl}oxy)-1-naphthyl]-5-piperidin-1-ylbenzamide], the melting point is 102 to 104 °C. In addition, the IC50 on p38α is 95.6 nM. Moreover, in data set [1], the concentration for half-maximal inhibition (IC50) is greater than 1000 nM.

In the case of `CN1CCC(Nc2nccc(Oc3ccc(NC(=O)c4cc(F)cc(N5CCOCC5)c4)c4ccccc34)n2)CC1` [Compound B362, 3-Fluoro-N-[4-({2-[(1-methylpiperidin-4-yl)amino]pyrimidin-4-yl}oxy)-1-naphthyl]-5-morpholin-4-ylbenzamide], the melting point lay within 128 to 129 °C. Moreover, at p38α, the IC50 came to 7.8 nM. For the same compound, the half-maximal inhibitory concentration (IC50) in data set [1] was 48.7 nM.

Compound `O=C(Nc1ccc(OCCN2CCOCC2)c2ccccc12)c1cc(N2CCOCC2)ncn1` [Compound B54, 6-Morpholin-4-yl-pyrimidine-4-carboxylic acid [4-(2-morpholin-4-yl-ethoxy)-naphthalen-1-yl]-amide] registered a melting point of 50 to 51 °C. In addition, the IC50 on p38α was greater than 10000 nM. In data set [1], the IC50 was greater than 10000 nM.

In turn, `O=C(Nc1ccc(Oc2ccnc(NCCN3CCCCC3)n2)c2ccccc12)c1cc(F)cc(N2CCCCC2)c1` [Compound B390, 3-Fluoro-5-piperidin-1-yl-N-[4-({2-[(2-piperidin-1-ylethyl)amino]pyrimidin-4-yl}oxy)-1-naphthyl]benzamide] registered a melting point of 88 to 89 °C. In addition, the IC50 at p38α turned out to be 3 nM. The IC50 in data set [1] amounted to 115 nM.

On to `O=C(Nc1ccc(Oc2ccnc(NCC3CC3)n2)c2ccccc12)c1cc(F)cc(N2CCCCC2)c1` [Compound B384, N-[4-({2-[(cyclopropylmethyl)amino]pyrimidin-4-yl}oxy)-1-naphthyl]-3-fluoro-5-piperidin-1-ylbenzamide], for which the melting point fell in the range of 117 to 119 °C. Also, the IC50 at p38α came to 6.3 nM. Also, in data set [1], the IC50 is 90.3 nM.

`CC1CCN(c2nccc(Oc3ccc(NC(=O)c4cc(F)cc(N5CCOCC5)c4)c4ccccc34)n2)CC1` [Compound B335, 3-Fluoro-N-(4-{[2-(4-methylpiperidin-1-yl)pyrimidin-4-yl]oxy}-1-naphthyl)-5-morpholin-4-ylbenzamide] had a melting point of 117 to 118 °C. Also, the IC50 on p38α stood at 22.2 nM. For the same compound, the IC50 in data set [1] is greater than 1000 nM.

The compound `O=C(Nc1ccc(Oc2ccnc(NC3(CO)CCCC3)n2)c2ccccc12)c1cc(F)cc(N2CCOCC2)c1` [Compound B350, 3-Fluoro-N-{4-[(2-{[1-(hydroxymethyl)cyclopentyl]amino}pyrimidin-4-yl)oxy]-1-naphthyl}-5-morpholin-4-ylbenzamide] had a melting point of 115 to 117 °C. Besides, the IC50 on p38α worked out at 9.5 nM. In addition, the IC50 in data set [1] worked out at 68.1 nM.

For the origin of these results see patent publication US7829560B2, “1,4-disubstituted naphthalenes as inhibitors of P38 MAP kinase” (Arqule, Inc., priority 2004, dated 2010).
